Experimental data taken from patent publication US20050004007A1, “Promotion of adoptosis in cancer cells by co-administration of cyclin dependent kinase inhibitiors and cellular differentiation agents” (priority 2000, published 2005).

Legend:
Type in all cases: cell-based, human
[1] = test system: p21WAF1/CIP1; assay: Western analysis of p21WAF1/CIP1 expression in U937 cells; details: for p21WAF1/CIP1 levels: 1 mM SB, 100 nM FP, 1-24 hr
Description: (§1) Western analysis. Equal quantities of protein (15 μg/condition for MAPK, 40 μg/condition for cytochrome c, or 25 μg/condition) were separated by SDS-PAGE [underphosporylated pRB (7.5%), poly(ADP-ribose)polymerase or PARP (8.0%), p44/p42 MAPK (10%), p21, p27, procaspase 3 (12%), and cytochrome c (15%)] and electroblotted onto nitrocellulose. Western analysis of p44/p42 MAPK protein was performed according to the manufacturer's instructions (New England Biolabs); otherwise, studies were performed as previously described [Wang et al, 1998]. Briefly, U937 cells (5×10^6) were pelleted by centrifugation, resuspended in 50 μl PBS, lysed by the addition of 2× Laemmli buffer and boiled for 5 min. Proteins were quantified with Coomassie protein assay reagent. Blots were blocked in PBS-T/5% milk, washed twice with PBS-T, and incubated overnight at 4° C. with the appropriate primary antibody. The blots were washed with PBS-T and incubated with a horseradish-peroxidase conjugated secondary antibody diluted appropriately in PBS-T/5% mill. Following incubation, blots were developed by enhanced chemiluminescence exposure to Kodak X-OMAT film (Eastman Kodak Co., Rochester, N.Y.) and reprobed with antibodies directed against actin to control for equal loading of protein.
(§2) Alternatively, whole cell-pellets were washed twice in PBS, resuspended in PBS, and lysed by the addition of I volume of loading buffer. Lysates were boiled for 10 min, centrifuged at 12,800 g for 5 min and quantified using Coomassie protein assay reagent (Pierce, Rockfold, Ill.). 25 μg of total proteins per point were separated by SDS-PAGE and electro-blotted to nitrocellulose. The blots were blocked in 5% non-fat milk in PBS-T and probed for 1 h with the appropriate dilution of primary antibody. Blots were washed 3×10 min in PBS-T and then incubated with a 1:2000 dilution of peroxidase-conjugated secondary antibody for 1 h at room temperature. Blots were again washed 3×10 min in PBS-T and then developed by enhanced chemiluminesence. Where indicated, blots were stripped and re-probed with antibodies directed against actin.
(§3) Primary antibodies for both p21^WAF1/CIP1 and p27^KIP1 (Transduction Laboratories, Lexington, Ky.) were used in a 1:1000 dilution; PARP (1:1000; Oncogene Research Products, Cambridge, Mass.); pro-caspase 3 (1:1000; Transduction Laboratories); cytochrome c (1:2000; Pharmingen); bcl-2 (1:2000; DAKO, Denmark); bax (1:1000; Santa Cruz Biotechnology, Inc., Santa Cruz, Calif.); bid (1:1000; Cell Signaling, Beverly, Mass.); XIAP (1:1000; Cell Signaling); Mcl-1 (1:1000; Pharmingen); bak (1:1000; Calbiochem); c-Myc (1:1000; Pharmingen, San Diego, Calif.); actin (1:2000; Sigma Chemicals, St. Louis, Mo.); cyclins-D1, -A and -E (1:1000; Pharmingen); pRb, underP-pRb, pRb-CDK2 and pRb-CDK4 (all 1:1000; Pharmingen); Ac-H3 and Ac-H4 (both 1:1000; Upstate Biotechnology, Lake Placid, N.Y.); E2F-1 (Upstate Biotechnology). Secondary antibodies conjugated to horseradish peroxidase were obtained from Kirkegaard and Perry Laboratories, Inc. (Gaithersburg, Md.). Coomassie protein assay reagent was purchased from Pierce (Rockford, Ill.), and an enhanced chemiluminescence kit was obtained from New England Nuclear (Boston, Mass.). The pan-caspase inhibitor BOC-D-fmk and the caspase 8 inhibitor Z-IETD-fmk were purchased from Enzyme System Products (Livermore, Calif.) All other chemicals or reagents were purchased from Sigma.

[2] = test system: U937 cells; assay: loss of mitochondrial membrane potential (DiOC6 uptake, flow cytometry); details: for percentage of cells displaying a loss of Δψm: 100 nM FP, 1 mM SB, 12 or 24 hr
Description: Assessment of mitochondrial membrane potential. At designated times, 1 ml aliquots of cells (2×10^5) were harvested and incubated with 40 nM DiOC6 for 15 minutes at 25° C. as previously described [Zamzami et al 1995]or at 37° C. Samples were analyzed using a Becton Dickinson FACScan flow cytometer (excitation λ=488 nm; emission λ=525 nm). […] Data acquisition and analysis was performed using […] Software (Becton Dickinson, Mansfield, Mass.).

[3] = test system: pRb; assay: Western analysis of underphosphorylated pRb in U937 cells; details: for levels of underphosphorylated pRb: FP 100 nM, SB 1 mM, 12 or 24 hr
Description: as §1, §2, §3

[4] = test system: U937 cells; assay: cell cycle analysis (propidium iodide, flow cytometry)
Description: Cell Cycle Analysis. Following drug treatment, cells were pelleted by centrifugation at 500 g×6 min, and resuspended in 70% ethanol. The cells were incubated on ice for at least 1 h and resuspended in 1 ml cell cycle buffer (0.38 mM Na-Citrate, 0.5 mg/ml RNase A, and 0.01 mg/ml propidium iodide) at a concentration of 10×10^5 cells/ml, stored in the dark at 4 C until analysis (24 h), using a Becton-Dickinson FACScan flow cytometer and Verity Winlist software (Verity Software, Topsham, Me.).

CN1CC[C@H](c2c(O)cc(O)c3c(=O)cc(-c4ccccc4Cl)oc23)[C@H](O)C1 [FP, Flavopiridol]
p21WAF1/CIP1 expression ([1]; 10 nM PMA, FP 50-100 nM, 24 h): no effect | p21WAF1/CIP1 levels [1]: did not modify | percentage of cells displaying a loss of Δψm [2]: modest increase | loss of mitochondrial membrane potential (Δψm) ([2]; 1 and 1.5 μM SAHA and FP (100 nM)): no effect | loss of mitochondrial membrane potential (Δψm) ([2]; FP 100 nM, PMA 10 nM, 4-8 h exposure): reductions were noted | full-length underphosphorylated pRb ([3]; 10 nM PMA, FP 50, 80 or 100 nM, 24 h): minimal effect | levels of underphosphorylated pRb [3]: did not affect | cell cycle distribution ([4]; 24 h after administration of SAHA, FP or both): increase in the G0/G1 population | percentage of cells arresting in G0/G1 ([4]; 48 h, 1 mM SB or 100 nM FP): ~53%

CCCC(=O)[O-].[Na+] [SB, sodium butyrate]
p21WAF1/CIP1 levels [1]: time-dependent increase | percentage of cells displaying a loss of Δψm [2]: no effect | levels of underphosphorylated pRb [3]: substantial increase | percentage of cells arresting in G0/G1 ([4]; 24 h, 1 mM SB): 48.1% | percentage of cells arresting in G0/G1 ([4]; 48 h, 1 mM SB or 100 nM FP): 81.6%
